According to ChEMBL document CHEMBL1126490, “An unusual oxetane nucleoside as a potent antiviral agent” (1993):
Several values for one entry are separate records, joined by “and”; a condition that tells them apart may be missing. Identical values can stand only once.

What was measured:
Type in all cases: functional
Mus musculus [1] = species on record: Mus musculus; assay: Mean survival time of mice against Japanese encephalitis virus was determined
Mus musculus [2] = species on record: Mus musculus; assay: Mean survival time of mice against forest virus was determined
Mus musculus [3] = assay: Percent survival of mice against Japanese encephalitis virus after 10 mg/Kg peroral administration of compound; conditions: po
Mus musculus [4] = assay: Percent survival of mice against Japanese encephalitis virus after 5 mg/Kg peroral administration of the compound.; conditions: po
Mus musculus [5] = assay: Percent survival of mice against forest virus after 10 mg/Kg peroral administration of compound; conditions: po
Mus musculus [6] = assay: Percent survival of mice against forest virus after 5 mg/Kg peroral administration of compound; conditions: po

Nc1ncnc2c1ncn2C1OC2COC2C1O (stereo unspecified)
MST (Mus musculus [1]): 10.7 days and 15.5 days
MST (Mus musculus [2]): 11.6 days and 11.8 days
survival at 10 mg/kg (Mus musculus [3]): 67%
survival at 5 mg/kg (Mus musculus [4]): 37%
survival at 10 mg/kg (Mus musculus [5]): 50%
survival at 5 mg/kg (Mus musculus [6]): 37%
